Measurements reported in ChEMBL document CHEMBL1914399 (Bioorg Med Chem Lett, 2011).

Experiment: Apparent permeability across apical to basolateral side of dog MDCK cells at 50 uM measured every 15 mins for 1.5 hrs by LC-MS/MS analysis
Type: ADME, cell-based, Canis lupus familiaris

SMILES: COCCc1ccc(OCC(O)CNC(C)C)cc1 (stereo unspecified) [METOPROLOL]
- Papp A→B at 1.5 h, 50 µM: 15.6 ×10⁻⁶ cm/s
